Patent US9868766B2, “Peptides as oxytocin agonists” (Hoffmann-La Roche Inc., priority 2012, dated 2018)
Positions of bridges follow the written chain, without caps; N, C: chain ends. Non-standard residues stand in square brackets, D forms with d. Residues, ends and D or L forms follow the SMILES beside them. Phe(4-NH2) = Nc1ccc(C[C@H](N)C(=O)O)cc1; Hyp = O=C(O)[C@@H]1C[C@@H](O)CN1; aThr = C[C@H](O)[C@H](N)C(=O)O; Tle = CC(C)(C)[C@H](N)C(=O)O; Nle = CCCC[C@H](N)C(=O)O; Dab = NCC[C@H](N)C(=O)O; Sar = CNCC(=O)O

Key:
Format in all cases: cell-based
human V1a receptor = molecular target: T1, human V1a receptor (Homo sapiens, UniProt P37288); assay: Calcium flux assay (FLIPR), agonist mode, CHO cells expressing human V1a; settings: CHO cells stably expressing human V1a; calcium flux; read-out: hV1a EC50
T1 construct: expressed in transfected cells
From the text: (§1) Chines Hamster Ovary (CHO) cells were transfected with expression plasmids encoding either the human V1a, the human Oxytocin (OTR) or the humanV2 receptor, the later in combination with the chimeric Gqs5 G protein to redirect the signal to Calcium flux. Stable cells were cloned by limiting dilution to yield monoclonal cell lines expressing either human V1a, human V2+Gqs5 or human OTR receptors and selected based on functional responses detected on a fluorometric imaging plate reader (FLIPR) detecting Calcium flux in the cell after receptor activation. The stable cell lines were grown in F-12 K Nutrient Mixture (Kaighns Modification), containing 10% foetal bovine serum (FBS), 1% penicillin-streptomycin, 1% L-glutamate, 200 ug/ml Geneticin at 37° C. in a 10% CO2 incubator at 95% humidity.
(§2) On the afternoon before the assay, cells were plated at a density of 50,000 cells/well into black 96 well plates with clear bottoms to allow cell inspection and fluorescence measurements from the bottom of each well. The density of cells was sufficient to yield a confluent monolayer the next day. Hanks balanced salt solution, without phenol red, containing 20 mM HEPES (pH 7.3) and 2.5 mM probenecid (assay buffer) was prepared fresh for each experiment. Compound dilutions were made using a Beckman Biomek 2000 laboratory automation workstation, in assay buffer containing 1% DMSO. The dye-loading buffer consisted of a final concentration of 2 μM Fluo-4-AM (dissolved in DMSO and pluronic acid) in assay buffer. The existing culture media was removed from the wells and 100 μl of the dye-loading buffer was added to each well and incubated for approximately 60 min at 37° C. in a 5% CO2 incubator at 95% humidity. Once dye-loaded, the cells were washed thoroughly on an Embla cell washer with the assay buffer to remove any unincorporated dye. Exactly 100 μl assay buffer was left in each well.
(§3) Each 96 well plate containing dye-loaded cells was placed into the FLIPR machine and the laser intensity set to a suitable level to detect low basal fluorescence. To test compounds as agonists, 25 μl diluted compound was added to the plate 10 seconds into the fluorescent measurements and fluorescent response was recorded for 5 minutes. The fluorescence data was normalized to the endogenous full agonist dose-response set at 100% for the maximum response and 0% for the minimum. Each agonist concentration-response curve was constructed using a four parameter logistic equation with Microsoft Excel XLFit as follows: Y=Minimum+((Maximum−Minimum)/(1+10^(Log EC50-X)nH)), where y is the % normalized fluorescence, minimum is the minimum y, maximum is the maximum y, log EC50 is the log10 concentration which produces 50% of the maximum induced fluorescence, x is the log10 of the concentration of the agonist compound and H is the slope of the curve (the Hill Coefficient). The maximum value gives the efficacy of the agonist test compound in percentage. The concentration of agonist that produced a half-maximal response is represented by the EC50 value, the logarithm of which yielded the pEC50 value.

[1] = molecular target: T2, human Oxytocin (OTR) receptor (Homo sapiens, UniProt P30559); assay: Calcium flux assay (FLIPR), agonist mode, CHO cells expressing human OTR; settings: for EC50: CHO cells stably expressing human OTR, calcium flux, read-out: hOT EC50; for Emax: CHO, read-out: hOT efficacy (%); for Emax / hOT efficacy (%): maximum response normalized to endogenous full agonist = 100%
T2 construct: expressed in transfected cells
T2 sequence (P30559 1-389): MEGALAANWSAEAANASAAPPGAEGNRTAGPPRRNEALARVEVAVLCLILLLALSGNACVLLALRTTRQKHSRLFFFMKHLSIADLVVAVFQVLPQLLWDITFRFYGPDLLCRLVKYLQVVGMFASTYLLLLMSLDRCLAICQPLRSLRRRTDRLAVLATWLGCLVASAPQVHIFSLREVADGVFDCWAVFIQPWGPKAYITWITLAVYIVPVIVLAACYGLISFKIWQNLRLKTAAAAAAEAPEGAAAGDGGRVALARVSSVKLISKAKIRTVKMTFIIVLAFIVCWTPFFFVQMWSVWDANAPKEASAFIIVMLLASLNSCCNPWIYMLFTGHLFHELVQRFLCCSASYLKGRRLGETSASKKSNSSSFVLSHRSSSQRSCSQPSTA
From the text: as §1, with “activation.” for “activation. The stable cell lines were grown in F-12 K Nutrient Mixture (Kaighns Modification), containing 10% foetal bovine serum (FBS), 1% penicillin-streptomycin, 1% L-glutamate, 200 ug/ml Geneticin at 37° C. in a 10% CO2 incubator at 95% humidity.”
as §2, with “The existing culture media was removed from the wells and 100 μl of the dye-loading buffer was added to each well and incubated for approximately 60 min at 37° C. in a 5% CO2 incubator at 95% humidity.” left out
Each 96 well plate containing dye-loaded cells was placed into the FLIPR machine and the laser intensity set to a suitable level to detect low basal fluorescence. To test compounds as agonists, 25 μl diluted compound was added to the plate 10 seconds into the fluorescent measurements and fluorescent response was recorded for 5 minutes. The fluorescence data was normalized to the endogenous full agonist dose-response set at 100% for the maximum response and 0% for the minimum. […] The concentration of agonist that produced a half-maximal response is represented by the EC50 value, the logarithm of which yielded the pEC50 value.

human V2 receptor = molecular target: T3, human V2 receptor (Homo sapiens, UniProt P30518); assay: Calcium flux assay (FLIPR), agonist mode, CHO cells expressing human V2 + Gqs5; settings: for EC50: CHO cells stably expressing human V2 + chimeric Gqs5, calcium flux, read-out: hV2 EC50; for Emax: CHO, read-out: hV2 efficacy (%); for Emax / hV2 efficacy (%): maximum response normalized to endogenous full agonist = 100%
T3 construct: expressed in transfected cells
From the text: as §1, §2, §3

T3 sequence (P30518 whole entry): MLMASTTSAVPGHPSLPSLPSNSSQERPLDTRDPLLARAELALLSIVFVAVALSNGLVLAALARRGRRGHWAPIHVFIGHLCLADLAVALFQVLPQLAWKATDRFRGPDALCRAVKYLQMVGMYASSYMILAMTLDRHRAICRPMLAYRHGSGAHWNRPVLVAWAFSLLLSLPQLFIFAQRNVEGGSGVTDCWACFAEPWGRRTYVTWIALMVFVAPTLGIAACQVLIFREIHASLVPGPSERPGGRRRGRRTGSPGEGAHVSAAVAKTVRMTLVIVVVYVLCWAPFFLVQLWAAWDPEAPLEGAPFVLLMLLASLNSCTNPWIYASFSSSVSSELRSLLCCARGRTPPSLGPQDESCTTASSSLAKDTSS
T1 sequence (P37288 whole entry): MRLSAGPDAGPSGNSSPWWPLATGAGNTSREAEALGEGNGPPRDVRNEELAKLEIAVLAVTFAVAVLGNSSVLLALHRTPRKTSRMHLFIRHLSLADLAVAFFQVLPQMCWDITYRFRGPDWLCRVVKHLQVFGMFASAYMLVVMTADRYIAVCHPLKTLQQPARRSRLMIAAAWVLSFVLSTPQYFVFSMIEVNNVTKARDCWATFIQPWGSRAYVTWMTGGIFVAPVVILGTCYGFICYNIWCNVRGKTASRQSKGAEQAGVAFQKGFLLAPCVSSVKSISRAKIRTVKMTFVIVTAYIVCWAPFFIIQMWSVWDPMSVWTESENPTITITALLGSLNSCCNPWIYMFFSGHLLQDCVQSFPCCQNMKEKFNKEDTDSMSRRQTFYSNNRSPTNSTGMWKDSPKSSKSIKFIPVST

Row | SMILES | EC50 (human V1a receptor) | EC50 [1] | Emax [1] | EC50 (human V2 receptor) | Emax (human V2 receptor) | hV2 efficacy (%) (human V2 receptor) | hOT efficacy (%) [1]
1 | CC[C@H](C)[C@@H]1NC(=O)[C@H](Cc2ccc(O)cc2)NC(=O)CNC(=O)CC[C@@H](C(=O)N2CCC[C@H]2C(=O)N[C@@H](CC(C)C)C(=O)NCC(N)=O)NC(=O)[C@H](CC(N)=O)NC(=O)[C@H](CCC(N)=O)NC1=O [Example 24] (GYIQNEPLG-NH2; lactam N-6) | > 27000 nM | 2.2 nM | 152% | 2510 nM | 98% | – | –
2 | CC[C@H](C)[C@H](NC(=O)CN(C)C(=O)[C@@H]1CCC(=O)NCC(=O)N[C@@H](Cc2ccc(O)cc2)C(=O)N[C@@H]([C@@H](C)CC)C(=O)N[C@@H](CCC(N)=O)C(=O)N[C@@H](CC(N)=O)C(=O)N1)C(=O)NCC(N)=O [Example 33] (GYIQNE[Sar]IG-NH2; lactam N-6) | > 27000 nM | 2 nM | 119% | 3820 nM | 101% | – | –
3 | CC[C@H](C)[C@@H]1NC(=O)[C@H](Cc2ccc(O)cc2)NC(=O)CNC(=O)CC[C@@H](C(=O)N(C)CC(=O)N[C@H](C(=O)NCC(N)=O)C(C)(C)C)NC(=O)[C@H](CC(N)=O)NC(=O)[C@H](CCC(N)=O)NC1=O [Example 44] (GYIQNE[Sar][Tle]G-NH2; lactam N-6) | > 27000 nM | 0.5 nM | 117% | 1230 nM | 112% | – | –
4 | CCCC[C@H](NC(=O)CN(C)C(=O)[C@@H]1CCC(=O)NCC(=O)N[C@@H](Cc2ccc(O)cc2)C(=O)N[C@@H]([C@@H](C)CC)C(=O)N[C@@H](CCC(N)=O)C(=O)N[C@@H](CC(N)=O)C(=O)N1)C(=O)NCC(N)=O [Example 40] (GYIQNE[Sar][Nle]G-NH2; lactam N-6) | > 27000 nM | 0.4 nM | 124% | 2190 nM | 117% | – | –
5 | CC[C@H](C)[C@@H]1NC(=O)[C@H](Cc2ccc(O)cc2)NC(=O)CNC(=O)CC[C@@H](C(=O)N2C[C@H](O)C[C@H]2C(=O)N[C@@H](CC(C)C)C(=O)NCC(N)=O)NC(=O)[C@H](CC(N)=O)NC(=O)[C@H](CCC(N)=O)NC1=O [Example 45] (GYIQNE[Hyp]LG-NH2; lactam N-6) | > 27000 nM | 0.6 nM | 113% | 3810 nM | 91% | – | –
6 | CC[C@H](C)[C@@H]1NC(=O)[C@H](Cc2ccc(O)cc2)NC(=O)CNC(=O)CC[C@@H](C(=O)N(C)CC(=O)N[C@H](C(=O)NCC(N)=O)[C@H](C)O)NC(=O)[C@H](CC(N)=O)NC(=O)[C@H](CCC(N)=O)NC1=O [Example 25] (GYIQNE[Sar][aThr]G-NH2; lactam N-6) | > 10000 nM | 3 nM | – | 3820 nM | 103% | – | 125%
7 | CC[C@H](C)[C@@H]1NC(=O)[C@H](Cc2ccc(O)cc2)NC(=O)CNC(=O)CC[C@@H](C(=O)N(C)CC(=O)N[C@H](C(=O)NCC(N)=O)C(C)C)NC(=O)[C@H](CC(N)=O)NC(=O)[C@H](CCC(N)=O)NC1=O [Example 26] (GYIQNE[Sar]VG-NH2; lactam N-6) | > 10000 nM | 2 nM | – | 2620 nM | 102% | – | 124%

The next lines start with the values.

Row | EC50 (human V1a receptor) | EC50 [1] | Emax [1] | EC50 (human V2 receptor) | Emax (human V2 receptor) | hV2 efficacy (%) (human V2 receptor) | hOT efficacy (%) [1] | SMILES
8 | > 10000 nM | 6 nM | 119% | 142 nM | – | 104% | – | CC[C@H](C)[C@@H]1NC(=O)[C@H](Cc2ccc(O)cc2)NC(=O)CNC(=O)CC[C@@H](C(=O)N(C)CC(=O)N[C@@H](CCN)C(=O)NCC(N)=O)NC(=O)[C@H](CC(N)=O)NC(=O)[C@H](CCC(N)=O)NC1=O [Example 30] (GYIQNE[Sar][Dab]G-NH2; lactam N-6)
9 | > 10000 nM | 10 nM | – | 145 nM | – | 120% | 136% | CC[C@H](C)[C@@H]1NC(=O)[C@H](Cc2ccc(O)cc2)NC(=O)CNC(=O)CC[C@@H](C(=O)N(C)CC(=O)N[C@@H](Cc2c[nH]cn2)C(=O)NCC(N)=O)NC(=O)[C@H](CC(N)=O)NC(=O)[C@H](CCC(N)=O)NC1=O [Example 34] (GYIQNE[Sar]HG-NH2; lactam N-6)
10 | > 27000 nM | 10 nM | – | 4800 nM | 107% | – | 111% | CC[C@H](C)[C@@H]1NC(=O)[C@H](Cc2ccc(O)cc2)NC(=O)CNC(=O)CC[C@@H](C(=O)N(C)CC(=O)N[C@@H](Cc2ccc(N)cc2)C(=O)NCC(N)=O)NC(=O)[C@H](CC(N)=O)NC(=O)[C@H](CCC(N)=O)NC1=O [Example 1] (GYIQNE[Sar][Phe(4-NH2)]G-NH2; lactam N-6)
11 | > 10000 nM | 5 nM | – | 1500 nM | 101% | – | 128% | CC[C@H](C)[C@@H]1NC(=O)[C@H](Cc2ccc(O)cc2)NC(=O)CNC(=O)CC[C@@H](C(=O)N(C)CC(=O)N[C@@H](Cc2ccccc2)C(=O)NCC(N)=O)NC(=O)[C@H](CC(N)=O)NC(=O)[C@H](CCC(N)=O)NC1=O [Example 27] (GYIQNE[Sar]FG-NH2; lactam N-6)
12 | > 27000 nM | 0.2 nM | 111% | 5110 nM | 97% | – | – | CC[C@H](C)[C@@H]1NC(=O)[C@H](Cc2ccc(O)cc2)NC(=O)CNC(=O)CC[C@@H](C(=O)N(C)CC(=O)N[C@@H](CC(C)C)C(=O)NCC(N)=O)NC(=O)[C@H](CC(N)=O)NC(=O)[C@H](CCC(N)=O)NC1=O [Example 13] (GYIQNE[Sar]LG-NH2; lactam N-6)
13 | > 10000 nM | 4 nM | 119% | 1990 nM | 106% | – | – | CC[C@H](C)[C@@H]1NC(=O)[C@H](Cc2ccc(O)cc2)NC(=O)CNC(=O)CC[C@@H](C(=O)N(C)CC(=O)N[C@@H](Cc2ccc(O)cc2)C(=O)NCC(N)=O)NC(=O)[C@H](CC(N)=O)NC(=O)[C@H](CCC(N)=O)NC1=O [Example 32] (GYIQNE[Sar]YG-NH2; lactam N-6)
